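Five compound concentrations were applied to cells in 96-well plates for 48 hours; endpoints were derived by simple linear interpolation of the resulting dose-response curve. GI50 is the concentration that inhibits growth by half.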 Calls of active or inactive are those of the source. Rule as the data show it: active = GI50 up to about 1.1 µM and inactive = higher.
Experiments:
Experiment in all cases: NCI-60 cell line screen, 48 h
NCI/ADR-RES = tested on: NCI/ADR-RES
MDA-N = tested on: MDA-N
RXF 393 = tested on: RXF 393
LOX IMVI = tested on: LOX IMVI
A549 = tested on: A549
SK-MEL-28 = tested on: SK-MEL-28
NCI-H23 = tested on: NCI-H23
OVCAR-8 = tested on: OVCAR-8
ACHN = tested on: ACHN
M14 = tested on: M14
SK-OV-3 = tested on: SK-OV-3
UACC-257 = tested on: UACC-257
SW-620 = tested on: SW-620
U-251 = tested on: U-251
Malme-3M = tested on: Malme-3M
SF-268 = tested on: SF-268
MOLT-4 = tested on: MOLT-4
K562 = tested on: K562
SNB-19 = tested on: SNB-19
UACC-62 = tested on: UACC-62

| SMILES | GI50 (NCI/ADR-RES) | GI50 (MDA-N) | GI50 (RXF 393) | GI50 (LOX IMVI) | GI50 (A549) | GI50 (SK-MEL-28) | GI50 (NCI-H23) | GI50 (OVCAR-8) | GI50 (ACHN) | GI50 (M14) | GI50 (SK-OV-3) | GI50 (UACC-257) | GI50 (SW-620) | GI50 (U-251) | GI50 (Malme-3M) | GI50 (SF-268) | GI50 (MOLT-4) | GI50 (K562) | GI50 (SNB-19) | GI50 (UACC-62) |
| --- | --- | --- | --- | --- | --- | --- | --- | --- | --- | --- | --- | --- | --- | --- | --- | --- | --- | --- | --- | --- |
| Cc1c2cnccc2c(C)c2c1c1ccccc1n2CCOC(=O)c1ccccc1 | 8.49 µM (inactive) | 17.6 µM (inactive) | 9.75 µM (inactive) | 8.38 µM (inactive) | 10.8 µM (inactive) | 15.2 µM (inactive) | 15.7 µM (inactive) | 6.55 µM (inactive) | 4.74 µM (inactive) | 26.7 µM (inactive) | 5.33 µM (inactive) | 12.4 µM (inactive) | 6.31 µM (inactive) | 15.7 µM (inactive) | 11.5 µM (inactive) | 11.4 µM (inactive) | 5.25 µM (inactive) | 9.71 µM (inactive) | 10.7 µM (inactive) | 11.9 µM (inactive) |
| COc1cc(-c2cc(O)c(-c3ccc4ccccc4n3)c(O)n2)cc(OC)c1OC | 26.9 µM (inactive) | 3.56 µM (inactive) | 39.9 µM (inactive) | 19.1 µM (inactive) | 53.7 µM (inactive) | 42.1 µM (inactive) | 46.2 µM (inactive) | > 32.4 µM (inactive) | > 62.7 µM (inactive) | 25.4 µM (inactive) | 39.6 µM (inactive) | 54.3 µM (inactive) | 19.1 µM (inactive) | 22.9 µM (inactive) | 13.1 µM (inactive) | 43 µM (inactive) | 6.97 µM (inactive) | 3.31 µM (inactive) | > 75.7 µM (inactive) | 15.2 µM (inactive) |
| COC(C(O)CO)C(O)C(O)C(=O)NNc1ccccc1 (stereo not given) | 16.5 µM (inactive) | 20 µM (inactive) | > 100 µM (inactive) | 2.92 µM (inactive) | > 100 µM (inactive) | > 100 µM (inactive) | > 100 µM (inactive) | > 100 µM (inactive) | > 100 µM (inactive) | 57.7 µM (inactive) | > 100 µM (inactive) | > 100 µM (inactive) | 8.49 µM (inactive) | > 100 µM (inactive) | > 100 µM (inactive) | 23.3 µM (inactive) | > 100 µM (inactive) | 4.05 µM (inactive) | > 100 µM (inactive) | 5.33 µM (inactive) |
| NC1=NCC(CN2CCOCC2)O1 (stereo not given) | > 100 µM (inactive) | > 100 µM (inactive) | > 100 µM (inactive) | > 100 µM (inactive) | > 100 µM (inactive) | > 100 µM (inactive) | > 100 µM (inactive) | > 100 µM (inactive) | > 100 µM (inactive) | > 100 µM (inactive) | > 100 µM (inactive) | > 100 µM (inactive) | > 100 µM (inactive) | > 100 µM (inactive) | > 100 µM (inactive) | > 100 µM (inactive) | > 100 µM (inactive) | > 100 µM (inactive) | > 100 µM (inactive) | > 100 µM (inactive) |
| COc1ccc(-c2c(/C=N/OCC(=O)O)c3sc4ccccc4n3c2/C=N/OCC(=O)O)cc1 | > 50 µM (inactive) | > 50 µM (inactive) | > 50 µM (inactive) | > 50 µM (inactive) | > 50 µM (inactive) | > 50 µM (inactive) | > 50 µM (inactive) | > 50 µM (inactive) | > 50 µM (inactive) | > 50 µM (inactive) | > 50 µM (inactive) | > 50 µM (inactive) | > 50 µM (inactive) | > 50 µM (inactive) | > 50 µM (inactive) | > 50 µM (inactive) | > 50 µM (inactive) | > 50 µM (inactive) | > 50 µM (inactive) | > 50 µM (inactive) |
| CNC(=S)N/N=C(\C)c1ccc(OC)cc1O | 28.8 µM (inactive) | > 100 µM (inactive) | > 100 µM (inactive) | > 100 µM (inactive) | > 100 µM (inactive) | > 100 µM (inactive) | > 100 µM (inactive) | > 100 µM (inactive) | > 100 µM (inactive) | > 100 µM (inactive) | > 100 µM (inactive) | > 100 µM (inactive) | > 100 µM (inactive) | > 73.5 µM (inactive) | > 100 µM (inactive) | > 100 µM (inactive) | 3.33 µM (inactive) | 0.7 µM (active) | > 100 µM (inactive) | > 100 µM (inactive) |
| COC(=O)/C=C1\C(=O)N(C(C)=O)c2ccc(Br)cc21 | 11.7 µM (inactive) | 11 µM (inactive) | 7.46 µM (inactive) | 7.89 µM (inactive) | 17.5 µM (inactive) | 14.5 µM (inactive) | 15.3 µM (inactive) | 8.43 µM (inactive) | 11.6 µM (inactive) | 10.4 µM (inactive) | 15.4 µM (inactive) | 10.7 µM (inactive) | 6.03 µM (inactive) | 8.05 µM (inactive) | 14.1 µM (inactive) | 7.46 µM (inactive) | 3.03 µM (inactive) | 7.69 µM (inactive) | 14.3 µM (inactive) | 11.6 µM (inactive) |
| CN(C)c1ccc(/C=C2\C[C@H]3[C@@H]4CC=C5C[C@@H](N6CCCC6)CC[C@]5(C)[C@H]4CC[C@]3(C)[C@H]2O)cc1 | 1.62 µM (inactive) | 1.01 µM (active) | 0.966 µM (active) | 0.787 µM (active) | 1.36 µM (inactive) | 0.977 µM (active) | 3.66 µM (inactive) | 0.769 µM (active) | 0.873 µM (active) | 0.773 µM (active) | 4.39 µM (inactive) | 0.957 µM (active) | 1.3 µM (inactive) | 0.925 µM (active) | 0.938 µM (active) | 0.989 µM (active) | 1.82 µM (inactive) | 1.21 µM (inactive) | 1.5 µM (inactive) | 0.871 µM (active) |
| CCC(=O)OCOc1ccc(/C=C2\CCC(CN(C)C)C2=O)cc1 (stereo not given) | 2.96 µM (inactive) | 5.47 µM (inactive) | 3.44 µM (inactive) | 1.94 µM (inactive) | 18.3 µM (inactive) | 4.29 µM (inactive) | 5.42 µM (inactive) | 4.19 µM (inactive) | 7.73 µM (inactive) | 3.42 µM (inactive) | 15.7 µM (inactive) | 3.39 µM (inactive) | 2.32 µM (inactive) | 11.1 µM (inactive) | 3.96 µM (inactive) | 8.59 µM (inactive) | 2.51 µM (inactive) | 1.85 µM (inactive) | 16.7 µM (inactive) | 4.1 µM (inactive) |
| O=C1N/C(=N\N=C\c2ccccc2)C2(CCCCC2)O1 | 42.5 µM (inactive) | > 100 µM (inactive) | > 100 µM (inactive) | 56.5 µM (inactive) | 54.5 µM (inactive) | > 100 µM (inactive) | > 100 µM (inactive) | 99.5 µM (inactive) | > 100 µM (inactive) | > 100 µM (inactive) | > 100 µM (inactive) | > 100 µM (inactive) | > 100 µM (inactive) | 77.8 µM (inactive) | > 100 µM (inactive) | > 100 µM (inactive) | 39.3 µM (inactive) | 35 µM (inactive) | > 100 µM (inactive) | > 100 µM (inactive) |
